Laboratory results from ChEMBL document CHEMBL1158630, “Synthesis, docking studies, and evaluation of pyrimidines as inhibitors of SARS-CoV 3CL protease” (Bioorg Med Chem Lett, 2010).

Biological target: Replicase polyprotein 1a (Severe acute respiratory syndrome-related coronavirus, UniProt P0C6U8)
Assay: Inhibition of SARS coronavirus chymotrypsin-like protease by fluorescence plate reader

Structure (SMILES)	IC50 [µM]
N#Cc1c(-c2ccccc2)nc(SCCc2ccccc2)[nH]c1=O	> 50
COc1ccc(-c2nc(SCCc3ccccc3)[nH]c(=O)c2C#N)cc1	20.3
Cc1ccc(-c2nc(SCc3ccc([N+](=O)[O-])cc3)[nH]c(=O)c2C#N)cc1	> 50
N#Cc1c(-c2ccccc2)nc(SCc2ccc([N+](=O)[O-])cc2)[nH]c1=O	35.2
N#Cc1c(-c2cccc([N+](=O)[O-])c2)nc(SCc2ccc([N+](=O)[O-])cc2)[nH]c1=O	10.6
N#Cc1c(-c2ccc(Cl)cc2)nc(SCCc2ccccc2)[nH]c1=O	16.9
Cc1ccc(-c2nc(SCc3ccccc3)[nH]c(=O)c2C#N)cc1	> 50
COc1ccc(-c2nc(SCc3ccccc3)[nH]c(=O)c2C#N)cc1	> 50
N#Cc1c(-c2cccc([N+](=O)[O-])c2)nc(SCCc2ccccc2)[nH]c1=O	> 50
N#Cc1c(-c2cccc(Cl)c2)nc(SCc2ccccc2)[nH]c1=O	> 50
Cc1ccc(-c2nc(SCCc3ccccc3)[nH]c(=O)c2C#N)cc1	> 50
N#Cc1c(-c2ccccc2)nc(SCc2ccccc2)[nH]c1=O	> 50
N#Cc1c(-c2ccc(Cl)cc2)nc(SCc2ccc([N+](=O)[O-])cc2)[nH]c1=O	6.1
COc1ccc(-c2nc(SCc3ccc([N+](=O)[O-])cc3)[nH]c(=O)c2C#N)cc1	26.3
